Data taken from ChEMBL document CHEMBL3991601, “The target landscape of clinical kinase drugs” (Science, 2017).
Calls of active or inactive are those of the source.

These compounds were tested against T1, STE20-related kinase adapter protein alpha (Homo sapiens, UniProt Q7RTN6).
T1 sequence (Q7RTN6 whole entry): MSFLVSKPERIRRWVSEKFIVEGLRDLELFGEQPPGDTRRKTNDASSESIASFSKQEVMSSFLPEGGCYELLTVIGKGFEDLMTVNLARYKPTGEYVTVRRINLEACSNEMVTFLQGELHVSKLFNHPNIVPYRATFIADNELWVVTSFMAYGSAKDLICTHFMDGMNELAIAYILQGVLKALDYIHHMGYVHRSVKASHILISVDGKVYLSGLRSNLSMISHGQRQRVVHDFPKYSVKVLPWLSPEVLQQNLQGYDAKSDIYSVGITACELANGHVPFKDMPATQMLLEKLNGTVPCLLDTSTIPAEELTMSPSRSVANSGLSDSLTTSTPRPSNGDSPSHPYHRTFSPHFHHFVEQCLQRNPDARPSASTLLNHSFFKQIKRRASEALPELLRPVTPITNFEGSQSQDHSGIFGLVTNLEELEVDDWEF
Note: in the data inactive means no Kd found up to 30 µM.

Structure (SMILES)	Kd
CCn1c(-c2nonc2N)nc2c(C#CC(C)(C)O)ncc(OC[C@H]3CCCNC3)c21 [GSK-690693]	> 30 µM (inactive)
Cn1cc(-c2ccc3nnc(C(F)(F)c4ccc5ncccc5c4)n3n2)cn1 [JNJ-38877605]	> 30 µM (inactive)
Cc1c(F)cc(C(=O)NC2CC2)cc1-c1ccc(C(=O)NCC(C)(C)C)cn1 [LOSMAPIMOD]	> 30 µM (inactive)
Cn1cc(-c2ccc(F)c(C(F)(F)F)c2)nc1C1CCN(c2ncnc3[nH]ncc23)CC1 [LY-2584702]	> 30 µM (inactive)
Cc1cn(-c2cc(NC(=O)c3ccc(C)c(Nc4nccc(-c5cccnc5)n4)c3)cc(C(F)(F)F)c2)cn1 [NILOTINIB]	> 30 µM (inactive)
C[C@@H](c1ccc2nccn2c1)n1nnc2ncc(-c3cnn(C)c3)nc21 [SAVOLITINIB]	> 30 µM (inactive)
O=C(Nc1cccc(Cl)c1)Nc1ncc(CCNc2ncnc3ccsc23)s1 [SNS-314]	> 30 µM (inactive)
CN1CCC(COc2cnc(-c3cccc(Cn4nc(-c5cccc(C#N)c5)ccc4=O)c3)nc2)CC1 [TEPOTINIB]	> 30 µM (inactive)
Nc1nc(N)c2nc(-c3cccc(O)c3)c(-c3cccc(O)c3)nc2n1 [TG100-115]	> 30 µM (inactive)

What follows are compounds tested against Serine/threonine-protein kinase/endoribonuclease IRE2 (Homo sapiens, UniProt Q76MJ5).
Serine/threonine-protein kinase/endoribonuclease IRE2, sequence (Q76MJ5 whole entry): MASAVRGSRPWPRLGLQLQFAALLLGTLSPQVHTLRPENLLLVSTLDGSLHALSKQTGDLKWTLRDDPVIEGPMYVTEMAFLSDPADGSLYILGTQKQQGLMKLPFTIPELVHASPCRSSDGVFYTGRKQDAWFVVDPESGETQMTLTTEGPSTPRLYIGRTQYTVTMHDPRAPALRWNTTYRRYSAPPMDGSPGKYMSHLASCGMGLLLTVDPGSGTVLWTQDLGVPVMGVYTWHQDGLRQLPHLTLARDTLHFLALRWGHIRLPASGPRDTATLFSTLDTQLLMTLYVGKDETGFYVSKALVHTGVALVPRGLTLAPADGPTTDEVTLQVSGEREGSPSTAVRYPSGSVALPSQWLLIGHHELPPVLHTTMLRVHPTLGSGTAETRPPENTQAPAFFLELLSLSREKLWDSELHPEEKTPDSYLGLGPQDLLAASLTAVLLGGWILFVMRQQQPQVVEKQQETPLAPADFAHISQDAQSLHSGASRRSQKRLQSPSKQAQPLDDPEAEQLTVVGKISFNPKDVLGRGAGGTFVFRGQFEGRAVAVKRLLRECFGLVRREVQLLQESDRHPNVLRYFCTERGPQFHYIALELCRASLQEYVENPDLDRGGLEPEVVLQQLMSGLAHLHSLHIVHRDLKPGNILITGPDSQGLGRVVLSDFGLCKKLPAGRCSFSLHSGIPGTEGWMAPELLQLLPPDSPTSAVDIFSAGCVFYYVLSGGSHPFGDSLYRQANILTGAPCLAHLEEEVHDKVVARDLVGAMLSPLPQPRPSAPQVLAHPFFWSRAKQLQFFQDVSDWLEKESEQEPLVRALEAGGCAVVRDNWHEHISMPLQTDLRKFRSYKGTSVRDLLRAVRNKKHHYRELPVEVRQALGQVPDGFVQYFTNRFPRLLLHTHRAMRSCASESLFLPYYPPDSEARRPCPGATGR

Structure (SMILES)	Kd
CCn1c(-c2nonc2N)nc2c(C#CC(C)(C)O)ncc(OC[C@H]3CCCNC3)c21 [GSK-690693]	> 30 µM (inactive)
Cn1cc(-c2ccc3nnc(C(F)(F)c4ccc5ncccc5c4)n3n2)cn1 [JNJ-38877605]	> 30 µM (inactive)
Cc1c(F)cc(C(=O)NC2CC2)cc1-c1ccc(C(=O)NCC(C)(C)C)cn1 [LOSMAPIMOD]	> 30 µM (inactive)
Cn1cc(-c2ccc(F)c(C(F)(F)F)c2)nc1C1CCN(c2ncnc3[nH]ncc23)CC1 [LY-2584702]	> 30 µM (inactive)
Cc1cn(-c2cc(NC(=O)c3ccc(C)c(Nc4nccc(-c5cccnc5)n4)c3)cc(C(F)(F)F)c2)cn1 [NILOTINIB]	> 30 µM (inactive)
C[C@@H](c1ccc2nccn2c1)n1nnc2ncc(-c3cnn(C)c3)nc21 [SAVOLITINIB]	> 30 µM (inactive)
O=C(Nc1cccc(Cl)c1)Nc1ncc(CCNc2ncnc3ccsc23)s1 [SNS-314]	> 30 µM (inactive)
CN1CCC(COc2cnc(-c3cccc(Cn4nc(-c5cccc(C#N)c5)ccc4=O)c3)nc2)CC1 [TEPOTINIB]	> 30 µM (inactive)
Nc1nc(N)c2nc(-c3cccc(O)c3)c(-c3cccc(O)c3)nc2n1 [TG100-115]	> 30 µM (inactive)
CN1N=C(N)c2cn([C@@H]3O[C@H](COP(=O)(O)O)[C@@H](O)[C@H]3O)c3ncnc1c23 [TRICIRIBINE PHOSPHATE]	> 30 µM (inactive)

Each compound was assayed against S-adenosylmethionine synthase isoform type-2 (Homo sapiens, UniProt P31153).
S-adenosylmethionine synthase isoform type-2, sequence (P31153 whole entry, canonical isoform): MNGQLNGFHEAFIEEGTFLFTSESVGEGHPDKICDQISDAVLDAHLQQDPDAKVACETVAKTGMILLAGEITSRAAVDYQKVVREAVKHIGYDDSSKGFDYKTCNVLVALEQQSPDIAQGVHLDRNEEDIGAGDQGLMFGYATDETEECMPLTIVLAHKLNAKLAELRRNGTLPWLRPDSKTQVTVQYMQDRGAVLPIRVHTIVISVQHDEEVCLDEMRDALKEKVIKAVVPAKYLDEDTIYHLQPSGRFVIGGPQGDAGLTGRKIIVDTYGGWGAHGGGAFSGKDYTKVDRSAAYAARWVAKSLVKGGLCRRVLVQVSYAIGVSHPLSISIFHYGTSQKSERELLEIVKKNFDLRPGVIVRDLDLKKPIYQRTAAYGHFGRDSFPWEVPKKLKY

Structure (SMILES)	Kd
CCn1c(-c2nonc2N)nc2c(C#CC(C)(C)O)ncc(OC[C@H]3CCCNC3)c21 [GSK-690693]	> 30 µM (inactive)
Cc1cn(-c2cc(NC(=O)c3ccc(C)c(Nc4nccc(-c5cccnc5)n4)c3)cc(C(F)(F)F)c2)cn1 [NILOTINIB]	> 30 µM (inactive)
C[C@@H](c1ccc2nccn2c1)n1nnc2ncc(-c3cnn(C)c3)nc21 [SAVOLITINIB]	> 30 µM (inactive)
O=C(Nc1cccc(Cl)c1)Nc1ncc(CCNc2ncnc3ccsc23)s1 [SNS-314]	> 30 µM (inactive)
CN1CCC(COc2cnc(-c3cccc(Cn4nc(-c5cccc(C#N)c5)ccc4=O)c3)nc2)CC1 [TEPOTINIB]	> 30 µM (inactive)
Nc1nc(N)c2nc(-c3cccc(O)c3)c(-c3cccc(O)c3)nc2n1 [TG100-115]	> 30 µM (inactive)
CN1N=C(N)c2cn([C@@H]3O[C@H](COP(=O)(O)O)[C@@H](O)[C@H]3O)c3ncnc1c23 [TRICIRIBINE PHOSPHATE]	> 30 µM (inactive)

The compounds below were run against T2, Phosphatidylinositol 5-phosphate 4-kinase type-2 gamma (Homo sapiens, UniProt Q8TBX8).
T2 sequence (Q8TBX8 whole entry): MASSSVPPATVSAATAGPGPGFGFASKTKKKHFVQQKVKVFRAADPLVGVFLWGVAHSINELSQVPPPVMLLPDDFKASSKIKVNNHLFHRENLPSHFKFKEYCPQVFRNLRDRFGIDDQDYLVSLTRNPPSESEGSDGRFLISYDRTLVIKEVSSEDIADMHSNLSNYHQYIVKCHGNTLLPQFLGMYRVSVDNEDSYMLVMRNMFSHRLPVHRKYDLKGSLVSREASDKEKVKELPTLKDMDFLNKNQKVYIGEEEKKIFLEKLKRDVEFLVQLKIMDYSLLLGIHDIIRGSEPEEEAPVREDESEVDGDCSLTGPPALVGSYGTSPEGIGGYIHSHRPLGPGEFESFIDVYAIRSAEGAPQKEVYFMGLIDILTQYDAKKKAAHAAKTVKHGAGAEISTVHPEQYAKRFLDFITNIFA

Structure (SMILES)	Kd
Cn1cc(-c2ccc3nnc(C(F)(F)c4ccc5ncccc5c4)n3n2)cn1 [JNJ-38877605]	0.32 µM (active)
Cc1c(F)cc(C(=O)NC2CC2)cc1-c1ccc(C(=O)NCC(C)(C)C)cn1 [LOSMAPIMOD]	> 30 µM (inactive)
Cn1cc(-c2ccc(F)c(C(F)(F)F)c2)nc1C1CCN(c2ncnc3[nH]ncc23)CC1 [LY-2584702]	> 30 µM (inactive)
CN1CCC(COc2cnc(-c3cccc(Cn4nc(-c5cccc(C#N)c5)ccc4=O)c3)nc2)CC1 [TEPOTINIB]	> 30 µM (inactive)
CN1N=C(N)c2cn([C@@H]3O[C@H](COP(=O)(O)O)[C@@H](O)[C@H]3O)c3ncnc1c23 [TRICIRIBINE PHOSPHATE]	> 30 µM (inactive)

The compounds below were run against RAC-alpha serine/threonine-protein kinase (Homo sapiens, UniProt P31749).
RAC-alpha serine/threonine-protein kinase, sequence (P31749 whole entry): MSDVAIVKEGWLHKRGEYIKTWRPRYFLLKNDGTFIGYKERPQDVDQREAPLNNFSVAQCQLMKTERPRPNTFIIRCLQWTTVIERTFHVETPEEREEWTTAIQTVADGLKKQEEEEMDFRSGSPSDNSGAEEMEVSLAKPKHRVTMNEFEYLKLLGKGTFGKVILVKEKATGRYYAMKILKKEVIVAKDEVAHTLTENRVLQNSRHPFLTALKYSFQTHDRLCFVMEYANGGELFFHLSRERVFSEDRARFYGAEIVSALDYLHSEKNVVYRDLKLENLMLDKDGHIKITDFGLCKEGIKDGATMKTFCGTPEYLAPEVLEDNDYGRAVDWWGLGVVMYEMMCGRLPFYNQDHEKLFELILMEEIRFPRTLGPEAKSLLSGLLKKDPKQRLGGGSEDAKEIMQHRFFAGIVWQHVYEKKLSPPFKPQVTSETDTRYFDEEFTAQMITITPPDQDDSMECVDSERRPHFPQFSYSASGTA

Structure (SMILES)	Kd
Cn1cc(-c2ccc3nnc(C(F)(F)c4ccc5ncccc5c4)n3n2)cn1 [JNJ-38877605]	> 30 µM (inactive)
Cc1c(F)cc(C(=O)NC2CC2)cc1-c1ccc(C(=O)NCC(C)(C)C)cn1 [LOSMAPIMOD]	> 30 µM (inactive)
Cn1cc(-c2ccc(F)c(C(F)(F)F)c2)nc1C1CCN(c2ncnc3[nH]ncc23)CC1 [LY-2584702]	> 30 µM (inactive)
C[C@@H](c1ccc2nccn2c1)n1nnc2ncc(-c3cnn(C)c3)nc21 [SAVOLITINIB]	> 30 µM (inactive)
CN1CCC(COc2cnc(-c3cccc(Cn4nc(-c5cccc(C#N)c5)ccc4=O)c3)nc2)CC1 [TEPOTINIB]	> 30 µM (inactive)
CN1N=C(N)c2cn([C@@H]3O[C@H](COP(=O)(O)O)[C@@H](O)[C@H]3O)c3ncnc1c23 [TRICIRIBINE PHOSPHATE]	> 30 µM (inactive)

The compounds below were run against Tyrosine-protein kinase JAK1 (Homo sapiens, UniProt P23458).
Tyrosine-protein kinase JAK1, sequence (P23458 whole entry): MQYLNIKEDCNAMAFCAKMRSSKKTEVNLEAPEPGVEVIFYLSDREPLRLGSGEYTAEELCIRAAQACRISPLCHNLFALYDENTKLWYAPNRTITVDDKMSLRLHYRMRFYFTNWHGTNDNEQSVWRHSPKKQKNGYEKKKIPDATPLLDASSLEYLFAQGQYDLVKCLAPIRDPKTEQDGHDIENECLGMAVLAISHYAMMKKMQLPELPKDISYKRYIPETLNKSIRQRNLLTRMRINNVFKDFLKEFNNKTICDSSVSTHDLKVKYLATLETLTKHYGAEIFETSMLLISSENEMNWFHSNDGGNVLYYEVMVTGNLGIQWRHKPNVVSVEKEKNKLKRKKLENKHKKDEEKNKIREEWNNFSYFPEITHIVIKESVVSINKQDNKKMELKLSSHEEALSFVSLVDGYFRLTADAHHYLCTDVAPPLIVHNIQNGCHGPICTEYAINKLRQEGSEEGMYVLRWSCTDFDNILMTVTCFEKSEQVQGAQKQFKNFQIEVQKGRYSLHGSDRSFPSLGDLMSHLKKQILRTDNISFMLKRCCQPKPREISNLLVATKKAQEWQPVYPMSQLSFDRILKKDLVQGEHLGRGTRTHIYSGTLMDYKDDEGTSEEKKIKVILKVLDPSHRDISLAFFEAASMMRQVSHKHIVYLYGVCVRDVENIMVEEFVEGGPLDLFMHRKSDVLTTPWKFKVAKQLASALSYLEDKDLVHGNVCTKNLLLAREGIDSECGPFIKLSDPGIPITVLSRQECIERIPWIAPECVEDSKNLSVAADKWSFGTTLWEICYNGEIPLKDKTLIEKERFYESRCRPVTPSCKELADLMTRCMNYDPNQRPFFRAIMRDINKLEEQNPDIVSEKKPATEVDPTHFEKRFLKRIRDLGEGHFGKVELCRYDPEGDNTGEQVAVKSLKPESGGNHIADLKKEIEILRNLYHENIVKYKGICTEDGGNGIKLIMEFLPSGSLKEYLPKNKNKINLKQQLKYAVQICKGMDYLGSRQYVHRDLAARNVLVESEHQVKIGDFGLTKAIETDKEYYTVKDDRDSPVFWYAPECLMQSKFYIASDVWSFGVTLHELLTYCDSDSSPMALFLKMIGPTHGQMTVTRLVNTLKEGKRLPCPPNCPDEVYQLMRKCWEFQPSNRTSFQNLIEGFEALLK

Structure (SMILES)	Kd
Cn1cc(-c2ccc3nnc(C(F)(F)c4ccc5ncccc5c4)n3n2)cn1 [JNJ-38877605]	> 30 µM (inactive)
Cc1c(F)cc(C(=O)NC2CC2)cc1-c1ccc(C(=O)NCC(C)(C)C)cn1 [LOSMAPIMOD]	> 30 µM (inactive)
Cn1cc(-c2ccc(F)c(C(F)(F)F)c2)nc1C1CCN(c2ncnc3[nH]ncc23)CC1 [LY-2584702]	> 30 µM (inactive)
C[C@@H](c1ccc2nccn2c1)n1nnc2ncc(-c3cnn(C)c3)nc21 [SAVOLITINIB]	> 30 µM (inactive)
O=C(Nc1cccc(Cl)c1)Nc1ncc(CCNc2ncnc3ccsc23)s1 [SNS-314]	> 30 µM (inactive)
CN1N=C(N)c2cn([C@@H]3O[C@H](COP(=O)(O)O)[C@@H](O)[C@H]3O)c3ncnc1c23 [TRICIRIBINE PHOSPHATE]	> 30 µM (inactive)

What follows are compounds tested against T3, Non-receptor tyrosine-protein kinase TNK1 (Homo sapiens, UniProt Q13470).
T3 sequence (Q13470 whole entry): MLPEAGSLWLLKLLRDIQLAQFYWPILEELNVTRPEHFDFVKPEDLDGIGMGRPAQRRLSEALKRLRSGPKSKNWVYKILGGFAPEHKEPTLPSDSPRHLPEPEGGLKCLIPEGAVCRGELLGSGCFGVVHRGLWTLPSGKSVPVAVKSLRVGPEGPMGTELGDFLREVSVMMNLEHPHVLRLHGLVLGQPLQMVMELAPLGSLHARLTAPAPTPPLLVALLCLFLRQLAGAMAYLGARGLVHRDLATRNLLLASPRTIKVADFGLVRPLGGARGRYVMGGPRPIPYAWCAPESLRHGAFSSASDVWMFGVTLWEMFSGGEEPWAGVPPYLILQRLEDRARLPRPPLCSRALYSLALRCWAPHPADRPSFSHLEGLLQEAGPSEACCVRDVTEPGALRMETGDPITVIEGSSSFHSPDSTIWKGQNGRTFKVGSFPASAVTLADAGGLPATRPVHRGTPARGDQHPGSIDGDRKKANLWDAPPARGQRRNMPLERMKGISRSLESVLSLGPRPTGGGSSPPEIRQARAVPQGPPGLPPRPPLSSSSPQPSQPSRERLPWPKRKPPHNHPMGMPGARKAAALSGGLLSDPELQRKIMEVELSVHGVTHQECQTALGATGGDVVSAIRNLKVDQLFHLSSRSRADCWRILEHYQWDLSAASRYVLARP

Structure (SMILES)	Kd
Cn1cc(-c2ccc3nnc(C(F)(F)c4ccc5ncccc5c4)n3n2)cn1 [JNJ-38877605]	> 30 µM (inactive)
Cc1c(F)cc(C(=O)NC2CC2)cc1-c1ccc(C(=O)NCC(C)(C)C)cn1 [LOSMAPIMOD]	> 30 µM (inactive)
Cn1cc(-c2ccc(F)c(C(F)(F)F)c2)nc1C1CCN(c2ncnc3[nH]ncc23)CC1 [LY-2584702]	> 30 µM (inactive)
C[C@@H](c1ccc2nccn2c1)n1nnc2ncc(-c3cnn(C)c3)nc21 [SAVOLITINIB]	> 30 µM (inactive)
O=C(Nc1cccc(Cl)c1)Nc1ncc(CCNc2ncnc3ccsc23)s1 [SNS-314]	> 30 µM (inactive)
CN1CCC(COc2cnc(-c3cccc(Cn4nc(-c5cccc(C#N)c5)ccc4=O)c3)nc2)CC1 [TEPOTINIB]	> 30 µM (inactive)
CN1N=C(N)c2cn([C@@H]3O[C@H](COP(=O)(O)O)[C@@H](O)[C@H]3O)c3ncnc1c23 [TRICIRIBINE PHOSPHATE]	> 30 µM (inactive)

Each compound was assayed against T4, Bone morphogenetic protein receptor type-2 (Homo sapiens, UniProt Q13873).
T4 sequence (Q13873 whole entry): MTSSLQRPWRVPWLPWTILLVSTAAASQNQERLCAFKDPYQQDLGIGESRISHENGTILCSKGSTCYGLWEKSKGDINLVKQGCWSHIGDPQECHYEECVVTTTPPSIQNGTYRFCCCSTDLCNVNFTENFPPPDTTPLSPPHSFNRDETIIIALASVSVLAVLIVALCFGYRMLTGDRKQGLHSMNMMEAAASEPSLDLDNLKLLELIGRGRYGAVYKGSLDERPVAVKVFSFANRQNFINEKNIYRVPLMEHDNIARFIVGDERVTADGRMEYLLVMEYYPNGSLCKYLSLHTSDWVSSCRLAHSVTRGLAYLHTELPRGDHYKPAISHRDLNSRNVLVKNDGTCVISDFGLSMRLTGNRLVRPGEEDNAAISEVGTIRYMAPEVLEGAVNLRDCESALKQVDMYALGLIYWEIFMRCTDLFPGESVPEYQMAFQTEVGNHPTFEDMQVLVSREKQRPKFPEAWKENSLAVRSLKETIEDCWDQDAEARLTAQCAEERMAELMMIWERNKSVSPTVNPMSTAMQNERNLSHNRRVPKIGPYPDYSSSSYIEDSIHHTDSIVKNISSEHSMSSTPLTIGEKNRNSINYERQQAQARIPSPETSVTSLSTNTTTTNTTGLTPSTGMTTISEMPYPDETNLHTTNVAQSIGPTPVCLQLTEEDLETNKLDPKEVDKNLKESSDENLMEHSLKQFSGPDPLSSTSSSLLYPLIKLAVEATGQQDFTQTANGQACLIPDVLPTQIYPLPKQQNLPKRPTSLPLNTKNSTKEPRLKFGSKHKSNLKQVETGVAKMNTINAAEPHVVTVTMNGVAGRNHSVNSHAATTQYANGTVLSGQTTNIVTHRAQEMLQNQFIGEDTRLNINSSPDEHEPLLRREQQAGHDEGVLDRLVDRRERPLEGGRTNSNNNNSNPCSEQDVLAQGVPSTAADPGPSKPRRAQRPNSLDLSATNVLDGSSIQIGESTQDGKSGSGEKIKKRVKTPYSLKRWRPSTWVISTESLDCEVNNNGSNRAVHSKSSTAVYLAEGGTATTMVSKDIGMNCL

Structure (SMILES)	Kd
Cn1cc(-c2ccc3nnc(C(F)(F)c4ccc5ncccc5c4)n3n2)cn1 [JNJ-38877605]	> 30 µM (inactive)
Cc1c(F)cc(C(=O)NC2CC2)cc1-c1ccc(C(=O)NCC(C)(C)C)cn1 [LOSMAPIMOD]	> 30 µM (inactive)
Cn1cc(-c2ccc(F)c(C(F)(F)F)c2)nc1C1CCN(c2ncnc3[nH]ncc23)CC1 [LY-2584702]	> 30 µM (inactive)
C[C@@H](c1ccc2nccn2c1)n1nnc2ncc(-c3cnn(C)c3)nc21 [SAVOLITINIB]	> 30 µM (inactive)
O=C(Nc1cccc(Cl)c1)Nc1ncc(CCNc2ncnc3ccsc23)s1 [SNS-314]	> 30 µM (inactive)
CN1CCC(COc2cnc(-c3cccc(Cn4nc(-c5cccc(C#N)c5)ccc4=O)c3)nc2)CC1 [TEPOTINIB]	> 30 µM (inactive)
CN1N=C(N)c2cn([C@@H]3O[C@H](COP(=O)(O)O)[C@@H](O)[C@H]3O)c3ncnc1c23 [TRICIRIBINE PHOSPHATE]	> 30 µM (inactive)
